# Reference: ChEMBL document CHEMBL3727357, “Compositions and methods for inhibiting g protein signaling” (2010)
# Activity calls are given as the source filed them. The calls are words filed in the database; no cut-off is given here.
# What was measured:
# [1] = target: Mu-type opioid receptor (Homo sapiens) (UniProt P35372); experiment: Inhibition of human Gbetagamma-dependent mu opioid receptor-mediated PLC activation expressed in CHO cells assessed as reduction of morphine-mediated total inositol phosphate production at 10 uM after 30 mins by scintillation counting analysis in presence of [3H]inositol; format: functional, cell-based
# Mu-type opioid receptor (Homo sapiens), sequence (P35372 whole entry): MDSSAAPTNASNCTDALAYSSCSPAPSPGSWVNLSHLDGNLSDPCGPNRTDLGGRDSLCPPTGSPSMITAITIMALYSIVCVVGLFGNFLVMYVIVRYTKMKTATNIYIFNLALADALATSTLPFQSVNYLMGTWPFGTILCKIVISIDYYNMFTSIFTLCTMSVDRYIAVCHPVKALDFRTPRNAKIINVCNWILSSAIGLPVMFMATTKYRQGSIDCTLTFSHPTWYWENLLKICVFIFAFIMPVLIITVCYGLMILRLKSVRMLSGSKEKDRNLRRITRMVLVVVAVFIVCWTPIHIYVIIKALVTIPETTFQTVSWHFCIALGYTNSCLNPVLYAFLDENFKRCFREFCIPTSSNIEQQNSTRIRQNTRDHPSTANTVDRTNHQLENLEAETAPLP
# [2] = target: Mu-type opioid receptor (Homo sapiens) (UniProt P35372); experiment: Inhibition of human Gbetagamma-dependent mu opioid receptor-mediated PLC activation expressed in CHO cells assessed as reduction of DAMGO-mediated total inositol phosphate production at 10 uM after 30 mins by scintillation counting analysis in presence of [3H]inositol; format: functional, cell-based
# [3] = target: Delta-type opioid receptor (Homo sapiens) (UniProt P41143); conditions: CHO, 100 uM
# Delta-type opioid receptor (Homo sapiens), sequence (P41143 whole entry): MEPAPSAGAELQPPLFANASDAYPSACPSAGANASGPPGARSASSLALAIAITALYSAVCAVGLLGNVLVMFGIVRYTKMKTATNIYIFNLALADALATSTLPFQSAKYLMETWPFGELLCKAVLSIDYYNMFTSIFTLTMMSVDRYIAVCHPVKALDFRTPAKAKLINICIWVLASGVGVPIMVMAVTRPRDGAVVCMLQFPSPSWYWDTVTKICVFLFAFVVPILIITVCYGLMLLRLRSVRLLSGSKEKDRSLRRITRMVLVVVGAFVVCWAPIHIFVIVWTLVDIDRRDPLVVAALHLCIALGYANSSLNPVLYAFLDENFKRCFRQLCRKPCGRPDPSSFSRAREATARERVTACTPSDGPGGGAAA
# Description: Inhibition of human Gbetagamma-dependent delta opioid receptor-mediated PLC activation expressed in CHO cells assessed as reduction of DPDPE-mediated total inositol phosphate production at 100 uM after 30 mins by scintillation counting analysis in presence of [3H]inositol
# [4] = target: Delta-type opioid receptor (Homo sapiens) (UniProt P41143); conditions: CHO, 100 uM; remark: listed apart in the source
# Description: Inhibition of human Gbetagamma-dependent delta opioid receptor-mediated PLC activation expressed in CHO cells assessed as reduction of Deltorphin 2-mediated total inositol phosphate production at 100 uM after 30 mins by scintillation counting analysis in presence of [3H]inositol
# [5] = target: T1, Guanine nucleotide-binding protein G(I)/G(S)/G(T) subunit beta-1/gamma-2 (Homo sapiens, UniProt P62873+P59768); experiment: Inhibition of biotinylated Gbeta1gamma2 (unknown origin) binding to PLCbeta3 at 1 uM incubated for 16 hrs; format: protein-complex assay
# T1 sequence (P59768 2-71 partner limits assumed): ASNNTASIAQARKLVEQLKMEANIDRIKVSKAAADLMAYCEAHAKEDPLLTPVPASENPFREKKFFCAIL
# T1 sequence (P62873 2-340 limits assumed): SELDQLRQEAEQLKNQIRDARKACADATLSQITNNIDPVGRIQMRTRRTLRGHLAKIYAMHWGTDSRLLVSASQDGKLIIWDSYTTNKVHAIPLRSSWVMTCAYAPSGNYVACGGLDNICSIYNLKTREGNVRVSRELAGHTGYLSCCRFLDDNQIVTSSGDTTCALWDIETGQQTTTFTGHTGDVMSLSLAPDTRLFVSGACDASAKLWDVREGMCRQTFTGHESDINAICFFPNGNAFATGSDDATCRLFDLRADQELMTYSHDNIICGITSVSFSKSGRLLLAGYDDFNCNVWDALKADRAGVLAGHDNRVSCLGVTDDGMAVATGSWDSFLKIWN
# HL-60 [6] = experiment: Effect on fMLP-stimulated ERK1/2 phosphorylation in human HL60 cells at 10 uM incubated for 5 mins prior to fMLP stimulation by Western blot analysis; format: functional, cell-based
# [7] = target: T1, Guanine nucleotide-binding protein G(I)/G(S)/G(T) subunit beta-1/gamma-2; experiment: Inhibition of biotinylated Gbeta1gamma2 (unknown origin) binding to PLCbeta2 at 1 uM incubated for 16 hrs; format: protein-complex assay
# HL-60 [8] = experiment: Binding affinity to Gbetagamma in human HL60 cells assessed as inhibition of fMLP-stimulated GRK2 translocation at 10 uM incubated for 5 mins prior to fMLP stimulation by Western blot analysis; format: cell-based
# CHO = experiment: Inhibition of human Gbetagamma-dependent kappa opioid receptor-mediated PLC activation expressed in CHO cells assessed as reduction of U50,488-mediated total inositol phosphate production at 10 uM after 30 mins by scintillation counting analysis in presence of [3H]inositol; format: cell-based
smiles,measurement,setting,value
COC(=O)/C=C/C(=O)N[C@@H]1CC[C@@]2(O)[C@H]3Cc4ccc(O)c5c4[C@@]2(CCN3CC2CC2)[C@H]1O5,inhibition,[1],Active
same,inhibition,[2],Active
Oc1ccc2c3c1O[C@H]1c4[nH]c5ccccc5c4C[C@@]4(O)[C@@H](C2)N(CC2CC2)CC[C@]314,inhibition,[3],inactive
same,inhibition,[4],inactive
COc1cc2c(c(OC)c1OC)-c1ccc(O)c(=O)cc1C(N)CC2 (centres undefined),inhibition,[5],inactive
same,Activity,HL-60 [6],inactive
same,inhibition,[7],inactive
same,inhibition,HL-60 [8],Active
Oc1ccc2c3c1O[C@H]1c4[nH]c5c(c4C[C@@]4(O)[C@@H](C2)N(CC2CC2)CC[C@]314)C[C@@]1(O)[C@H]2Cc3ccc(O)c4c3[C@@]1(CCN2CC1CC1)[C@H]5O4,inhibition,CHO,inactive
